How the values were obtained:
human Gal-3 (hGal-3) = human Gal-3 (hGal-3) (Homo sapiens (Human), UniProt P17931); experiment: Competitive binding assay: biotinylated hGal-3 binding to microplate-adsorbed asialofetuin (ASF); settings: Activity on hGal-3; binding of biotinylated hGal-3 to ASF-coated plates; mean values
Method in brief: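 Serially diluted compounds competed with biotinylated human Gal-3 for binding to plate-adsorbed asialofetuin over 3 h at 4 °C. Bound Gal-3 was detected with streptavidin-peroxidase (80 ng/mL, 1 h, 4 °C) and ABTS substrate. IC50 values are means of several measurements.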

human Gal-1 (hGal-1) = experiment: Competitive binding assay: biotinylated hGal-1 binding to microplate-adsorbed asialofetuin (ASF); settings: Activity on hGal-1; binding of biotinylated hGal-1 to ASF-coated plates; mean values
Method in brief: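 Inhibition measured as loss of hGal-1 (biotinylated, 300–1000 ng/mL, wild type or Cys→Ser mutant) binding to adsorbed asialofetuin over 3 h at 4 °C. Bound lectin detected with streptavidin-HRP and ABTS (410 nm, 30–45 min); IC50 values averaged across repeat measurements.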

human Gal-1 (hGal-1), sequence (P09382 2-135 limits assumed): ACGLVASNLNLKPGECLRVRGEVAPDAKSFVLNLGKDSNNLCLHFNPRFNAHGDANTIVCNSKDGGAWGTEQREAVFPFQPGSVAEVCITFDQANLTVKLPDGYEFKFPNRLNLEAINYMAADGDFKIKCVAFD
human Gal-3 (hGal-3), sequence (P17931 whole entry): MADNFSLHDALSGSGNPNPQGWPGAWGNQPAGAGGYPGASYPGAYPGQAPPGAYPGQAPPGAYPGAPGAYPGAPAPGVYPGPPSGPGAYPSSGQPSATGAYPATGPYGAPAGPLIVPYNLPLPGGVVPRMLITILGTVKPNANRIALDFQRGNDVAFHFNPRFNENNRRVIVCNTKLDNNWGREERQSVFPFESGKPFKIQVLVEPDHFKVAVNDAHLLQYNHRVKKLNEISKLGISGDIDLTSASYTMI

IC50 (human Gal-3 (hGal-3)) | IC50 (human Gal-1 (hGal-1)) | Structure (SMILES)
95 nM | 534 nM | O=C([C@@H]1O[C@H](CO)[C@H](O)[C@H](n2cc(-c3cc(F)c(F)c(Cl)c3)nn2)[C@H]1O)N(Cc1ccccc1C(F)(F)F)[C@H]1CCCC[C@@H]1O [Example 66, (2R,3R,4S,5R,6R)-4-(4-(3-chloro-4,5-difluorophenyl)-1H-1,2,3-triazol-1-yl)-3,5-dihydroxy-N-((1S,2S)-2-hydroxycyclohexyl)-6-(hydroxymethyl)-N-(2-(trifluoromethyl)benzyl)tetrahydro-2H-pyran-2-carboxamide]
44 nM | 1170 nM | CC(=O)O[C@@H]1[C@@H](n2cc(-c3cc(F)c(Cl)c(F)c3)nn2)[C@@H](O)[C@@H](CO)O[C@H]1C(=O)N(Cc1ccccc1C(F)(F)F)[C@H]1CCCC[C@@H]1O [Example 68, (2R,3R,4S,5R,6R)-4-(4-(4-chloro-3,5-difluorophenyl)-1H-1,2,3-triazol-1-yl)-5-hydroxy-2-(((1S,2S)-2-hydroxycyclohexyl)(2-(trifluoromethyl)benzyl)carbamoyl)-6-(hydroxymethyl)tetrahydro-2H-pyran-3-yl acetate]
84 nM | 2570 nM | O=C([C@@H]1O[C@H](CO)[C@H](O)[C@H](n2cc(-c3cc(F)c(Br)c(F)c3)nn2)[C@H]1O)N(Cc1ccccc1C(F)(F)F)[C@H]1CCCC[C@@H]1O [Example 69, (2R,3R,4S,5R,6R)-4-(4-(4-bromo-3,5-difluorophenyl)-1H-1,2,3-triazol-1-yl)-3,5-dihydroxy-N-((1S,2S)-2-hydroxycyclohexyl)-6-(hydroxymethyl)-N-(2-(trifluoromethyl)benzyl)tetrahydro-2H-pyran-2-carboxamide]
90 nM | 615 nM | O=C([C@@H]1O[C@H](CO)[C@H](O)[C@H](n2cc(-c3ccc(Br)c(F)c3)nn2)[C@H]1O)N(Cc1ccccc1C(F)(F)F)[C@H]1CCCC[C@@H]1O [Example 70, (2R,3R,4S,5R,6R)-4-(4-(4-bromo-3-fluorophenyl)-1H-1,2,3-triazol-1-yl)-3,5-dihydroxy-N-((1S,2S)-2-hydroxycyclohexyl)-6-(hydroxymethyl)-N-(2-(trifluoromethyl)benzyl)tetrahydro-2H-pyran-2-carboxamide]
143 nM | 1310 nM | O=C([C@@H]1O[C@H](CO)[C@H](O)[C@H](n2cc(-c3nc(Cl)cs3)nn2)[C@H]1O)N(Cc1ccccc1C(F)(F)F)[C@H]1CCCC[C@@H]1O [Example 71, (2R,3R,4S,5R,6R)-4-(4-(4-chlorothiazol-2-yl)-1H-1,2,3-triazol-1-yl)-3,5-dihydroxy-N-((1S,2S)-2-hydroxycyclohexyl)-6-(hydroxymethyl)-N-(2-(trifluoromethyl)benzyl)tetrahydro-2H-pyran-2-carboxamide]
13 nM | 157 nM | CO[C@@H]1[C@@H](n2cc(-c3cc(F)c(F)c(F)c3)nn2)[C@@H](O)[C@@H](CO)O[C@H]1C(=O)N(c1cc(Cl)cc(C#N)c1)[C@H]1CCCC[C@@H]1O [Example 88, (2R,3R,4S,5R,6R)-N-(3-chloro-5-cyanophenyl)-5-hydroxy-N-((1S,2S)-2-hydroxycyclohexyl)-6-(hydroxymethyl)-3-methoxy-4-(4-(3,4,5-trifluorophenyl)-1H-1,2,3-triazol-1-yl)tetrahydro-2H-pyran-2-carboxamide]

Second part, the molecule before the results:

Structure (SMILES) | IC50 (human Gal-3 (hGal-3)) | IC50 (human Gal-1 (hGal-1))
COc1cccc(N(C(=O)[C@@H]2O[C@H](CO)[C@H](O)[C@H](n3cc(-c4cccc(F)c4)nn3)[C@H]2OC)[C@H]2CCCC[C@@H]2O)c1 [Example 73, (2R,3R,4S,5R,6R)-4-(4-(3-fluorophenyl)-1H-1,2,3-triazol-1-yl)-5-hydroxy-N-((1S,2S)-2-hydroxycyclohexyl)-6-(hydroxymethyl)-3-methoxy-N-(3-methoxyphenyl)tetrahydro-2H-pyran-2-carboxamide] | 69 nM | 1540 nM
CO[C@@H]1[C@@H](n2cc(-c3cccc(F)c3)nn2)[C@@H](O)[C@@H](CO)O[C@H]1C(=O)N(c1cc(Cl)cc(C#N)c1)[C@H]1CCCC[C@@H]1O [Example 74] | 44 nM | 161 nM
CO[C@@H]1[C@@H](n2cc(-c3cccc(F)c3C)nn2)[C@@H](O)[C@@H](CO)O[C@H]1C(=O)N(c1cc(Cl)cc(C#N)c1)[C@H]1CCCC[C@@H]1O [Example 75, (2R,3R,4S,5R,6R)-N-(3-chloro-5-cyanophenyl)-4-(4-(3-fluoro-2-methylphenyl)-1H-1,2,3-triazol-1-yl)-5-hydroxy-N-((1S,2S)-2-hydroxycyclohexyl)-6-(hydroxymethyl)-3-methoxytetrahydro-2H-pyran-2-carboxamide] | 50 nM | 259 nM
COc1ccc(F)cc1-c1cn([C@H]2[C@@H](O)[C@@H](CO)O[C@@H](C(=O)N(c3cc(Cl)cc(C#N)c3)[C@H]3CCCC[C@@H]3O)[C@@H]2OC)nn1 [Example 76, (2R,3R,4S,5R,6R)-N-(3-chloro-5-cyanophenyl)-4-(4-(5-fluoro-2-methoxyphenyl)-1H-1,2,3-triazol-1-yl)-5-hydroxy-N-((1S,2S)-2-hydroxycyclohexyl)-6-(hydroxymethyl)-3-methoxytetrahydro-2H-pyran-2-carboxamide] | 42 nM | 901 nM
COc1cccc(N(C(=O)[C@@H]2O[C@H](CO)[C@H](O)[C@H](n3cc(-c4cc(F)cc(F)c4)nn3)[C@H]2OC)[C@H]2CCCC[C@@H]2O)c1 [Example 79] | 62 nM | 2110 nM
CO[C@@H]1[C@@H](n2cc(-c3cc(F)cc(F)c3)nn2)[C@@H](O)[C@@H](CO)O[C@H]1C(=O)N(c1cc(Cl)cc(C#N)c1)[C@H]1CCCC[C@@H]1O [Example 80, (2R,3R,4S,5R,6R)-N-(3-chloro-5-cyanophenyl)-4-(4-(3,5-difluorophenyl)-1H-1,2,3-triazol-1-yl)-5-hydroxy-N-((1S,2S)-2-hydroxycyclohexyl)-6-(hydroxymethyl)-3-methoxytetrahydro-2H-pyran-2-carboxamide] | 25 nM | 383 nM
CO[C@@H]1[C@@H](n2cc(-c3cc(F)cc(F)c3)nn2)[C@@H](O)[C@@H](CO)O[C@H]1C(=O)N(c1cc(C)cc(C#N)c1)[C@H]1CCCC[C@@H]1O [Example 81, (2R,3R,4S,5R,6R)-N-(3-cyano-5-methylphenyl)-4-(4-(3,5-difluorophenyl)-1H-1,2,3-triazol-1-yl)-5-hydroxy-N-((1S,2S)-2-hydroxycyclohexyl)-6-(hydroxymethyl)-3-methoxytetrahydro-2H-pyran-2-carboxamide] | 73 nM | 1320 nM
COc1cc(C#N)cc(N(C(=O)[C@@H]2O[C@H](CO)[C@H](O)[C@H](n3cc(-c4cc(F)cc(F)c4)nn3)[C@H]2OC)[C@H]2CCCC[C@@H]2O)c1 [Example 82, (2R,3R,4S,5R,6R)-N-(3-cyano-5-methoxyphenyl)-4-(4-(3,5-difluorophenyl)-1H-1,2,3-triazol-1-yl)-5-hydroxy-N-((1S,2S)-2-hydroxycyclohexyl)-6-(hydroxymethyl)-3-methoxytetrahydro-2H-pyran-2-carboxamide] | 17 nM | 1160 nM
CO[C@@H]1[C@@H](n2cc(-c3cc(F)cc(F)c3)nn2)[C@@H](O)[C@@H](CO)O[C@H]1C(=O)N(c1cc(C)cc(Cl)c1)[C@H]1CCCC[C@@H]1O [Example 83, (2R,3R,4S,5R,6R)-N-(3-chloro-5-methylphenyl)-4-(4-(3,5-difluorophenyl)-1H-1,2,3-triazol-1-yl)-5-hydroxy-N-((1S,2S)-2-hydroxycyclohexyl)-6-(hydroxymethyl)-3-methoxytetrahydro-2H-pyran-2-carboxamide] | 26 nM | 2320 nM
CO[C@@H]1[C@@H](n2cc(-c3cc(F)cc(F)c3)nn2)[C@@H](O)[C@@H](CO)O[C@H]1C(=O)N(c1cccc(Br)c1)[C@H]1CCCC[C@@H]1O [Example 84, (2R,3R,4S,5R,6R)-N-(3-bromophenyl)-4-(4-(3,5-difluorophenyl)-1H-1,2,3-triazol-1-yl)-5-hydroxy-N-((1S,2S)-2-hydroxycyclohexyl)-6-(hydroxymethyl)-3-methoxytetrahydro-2H-pyran-2-carboxamide] | 25 nM | 1900 nM
CO[C@@H]1[C@@H](n2cc(-c3cc(F)cc(F)c3)nn2)[C@@H](O)[C@@H](CO)O[C@H]1C(=O)N(c1cccc(Cl)c1)[C@H]1CCCC[C@@H]1O [Example 85, (2R,3R,4S,5R,6R)-N-(3-chlorophenyl)-4-(4-(3,5-difluorophenyl)-1H-1,2,3-triazol-1-yl)-5-hydroxy-N-((1S,2S)-2-hydroxycyclohexyl)-6-(hydroxymethyl)-3-methoxytetrahydro-2H-pyran-2-carboxamide] | 35 nM | 1690 nM
CO[C@@H]1[C@@H](n2cc(-c3cc(F)cc(F)c3)nn2)[C@@H](O)[C@@H](CO)O[C@H]1C(=O)N(c1cccc(C#N)c1)[C@H]1CCCC[C@@H]1O [Example 86, (2R,3R,4S,5R,6R)-N-(3-cyanophenyl)-4-(4-(3,5-difluorophenyl)-1H-1,2,3-triazol-1-yl)-5-hydroxy-N-((1S,2S)-2-hydroxycyclohexyl)-6-(hydroxymethyl)-3-methoxytetrahydro-2H-pyran-2-carboxamide] | 111 nM | 1850 nM
[2H]C([2H])([2H])O[C@@H]1[C@@H](n2cc(-c3cc(F)c(F)c(F)c3)nn2)[C@@H](O)[C@@H](CO)O[C@H]1C(=O)N(c1cc(Cl)cc(Cl)c1)[C@H]1CCCC[C@@H]1O [Example 87, (2R,3R,4S,5R,6R)-N-(3,5-dichlorophenyl)-5-hydroxy-N-((1S,2S)-2-hydroxycyclohexyl)-6-(hydroxymethyl)-3-(methoxy-d3)-4-(4-(3,4,5-trifluorophenyl)-1H-1,2,3-triazol-1-yl)tetrahydro-2H-pyran-2-carboxamide] | 7 nM | 173 nM
